{"source": "paper PMC6540222", "about": "“Small Molecule Inhibitors of KDM5 Histone Demethylases Increase the Radiosensitivity of Breast Cancer Cells Overexpressing JARID1B” (Molecules, 2019)", "key": {"[1]": {"test_system": "H3K4me3 levels in MCF-7 cells", "assay": "Western blotting of H3K4me3 levels in bulk chromatin", "type": "cell-based, human", "conditions": "MCF7 bulk chromatin, 24 h", "protocol": "Histone isolation was performed according to acid extraction of histones protocol of Shechter and colleagues. Histone concentration was determined by running 5 μL of samples and known concentrations of commercially available purified calf thymus histones (from Sigma Aldrich Cat. #000000010223565001) on a SDS-PAGE gel. The gel is stained with Coomassie blue G 250 (BIO-RAD Cat. #161-0786) for 1 hour at room temperature and then destained in distilled water. The gel image is acquired with ChemiDoc XRS+ Imaging System (Bio-Rad, Hercules, CA, USA) and the volumes of bands of the samples are compared to standard concentrations of calf thymus histone.\n(§1) Proteins were resolved on a 12% (histones) or 5% (JARID1B) denaturing polyacrylamide gel, using either 4 μg of histone preparation or 40 μg of cell lysate. After electrophoresis, proteins were transferred on a nitrocellulose membrane (Protran™ […] NC, # 10600002, GE Healthcare (Amersham™), Chicago, IL, USA) via wet transfer method using a Bio-Rad tank. Transfer efficiency was verified via ponceau staining (#P7767, Sigma-Aldrich). Filters were blocked with either milk (#70166, Sigma-Aldrich) or bovine serum albumin (#A3069, Sigma-Aldrich) and then hybridized over night at 4 °C in gentle rotation with the following antibodies: rabbit anti-H3K4me3 (1:1000, #39915, Active Motif, RRID:AB_2687512); rabbit-anti-H3K27me3 (1:1000, #9733, Cell Signaling Technology, RRID:AB_2616029); rabbit-anti- H3K9pan-methylated (1:1000, #4473, RRID:AB_10544693); rabbit-anti-H3 ([…], Cat#1791, ABCAM, RRID:AB_302613); rabbit anti-H2AX (1:1000, Cat#7631, Cell Signaling Technology, RRID:AB_10860771), rabbit anti-Phospho-H2AX (1:1000, Cat#9718, Cell Signaling Technology, RRID:AB_2118009), rabbit anti-JARID1B (1:50, Cell Signaling Technology, Cat#3273 RRID: AB_1264191). Goat-anti-Rabbit Horseradish Peroxidase conjugated (1:10,000, #31460, Thermo Fisher Scientific, Waltham, MA, USA RRID:AB_228341) was used as secondary antibody for 1 hour hybridization at room temperature. Blots were scanned and analyzed with a ChemiDoc XRS+ Imaging System (Bio-Rad). The volumes of each band of protein was acquired using Bio-Rad’s ImageLab software by means of volume tools using global quantification. The signal for each protein was normalized to the housekeeping protein and ratios with average control values were determined. For histones as loading control was used either total histone H3 detected by a specific antibody or histone H1 levels by staining the upper part of the gel properly cut before protein transfer on nitrocellulose membrane."}, "MCF-7 cells [2]": {"test_system": "MCF-7 cells", "assay": "Flow-cytometry analysis of cell cycle distribution", "type": "cell-based, human", "conditions": "MCF-7, same range of concentrations as H3K4me3 test (not shown)", "protocol": "Flow-cytometry analysis of DNA content was carried out using an EPICS xl flow-cytometer (Beckman-Coulter, Brea, CA, USA). DMSO and inhibitor treated MCF-7 cells were trypsinized, pelleted, washed with PBS and finally resuspended in PBS containing 0.1% Triton-X-100 (#A1388.1000, AppliChem, Darmstadt, Germany) and 40 μg/mL propidium iodide (#P-4170, Sigma). After 20 min incubation at 37 °C the samples were analyzed. 10,000 events were acquired for each sample. Acquired data were analyzed using the WinMDI software by Joe Trotter, available at http://facs.scripps.edu."}, "MCF-7 cells [3]": {"test_system": "MCF-7 cells", "assay": "CCK-8 viability assay after X-ray irradiation", "type": "cell-based, human", "conditions": "MCF-7 irradiated with 3 Gy, all concentrations tested, compared to DMSO control, CCK-8 48 h post irradiation", "protocol": "The cytoxicity assay was performed with Cell Counting Kit-8 (#96992, Sigma-Aldrich) according to the manufacturer’s instructions. 100 µL of MCF-7 T47D or MDA-MB231 cell suspension (5000 cells/well) was dispensed in a 96-well plate. After 24 h, inhibitor or DMSO was added in growth medium and then cells were irradiated. 48 h post irradiation, 10 μL of CCK-8 solution was added to each well of the plate and incubated again for 1 h. Incubate the plate for 1–4 h in the incubator. The absorbance at 450 nm was read using a VICTOR2 1420 reader (Perkin Elmer Wallac, Waltham, MA, USA). The absorbance at 450 nm of each sample, which is proportional to the number of viable cells, was first normalized on the same value of absorbance of blank (a well with only growth medium). The absorbance of each dose of radiation (sham, 0.3, 1 and 3 Gy) was normalized to the corresponding DMSO control and then, for each concentration of inhibitors, these values were normalized to the corresponding sham control."}, "MCF-7 cells [4]": {"test_system": "MCF-7 cells", "assay": "Clonogenic assay after X-ray irradiation", "type": "cell-based, human", "conditions": "MCF-7, 0.03 μM, 3 and 10 Gy, compared to DMSO control", "protocol": "One hour after treatment with inhibitors, cells were exposed to X-ray using a MLG 300/6-D apparatus (Gilardoni, Lecco, Italy) set to […] and 6 mA, in order to produce an equivalent absorbed dose of 1cGy/s. Afterwards, cells were harvested, counted and then diluted in inhibitor containing growth medium. Appropriate cell numbers were seeded in quadruplicate according to the doubling time of the cell line and to radiation dose. 24 h after this seeding, the medium with inhibitor was replaced with fresh DMEM and cells were then incubated for 14 days (enough time to allow at least six cell divisions). After this period of growth, cells were washed twice with PBS and then fixed and stained with a suitable volume of a solution made of 0.3% Methylene Blue and 80% Ethanol for 30 min at room temperature. After washing cells twice with ddH2O, plates were pictured with ChemiDoc XRS+ Imaging System (Bio-Rad) in colorimetric mode. Colonies were detected using Fiji software, with the “Find maxima” function setting a background noise threshold of 3000. Radiation-dose response curveS to X-ray for DMSO and inhibitor samples were calculated using surviving fraction. Plating efficiency and surviving fraction were calculated as follows:Plating efficiency = number of colonies counted/number of cells plated Surviving fraction = Plating efficiency/plating efficiency of shame sample"}, "[5]": {"test_system": "γ-H2AX levels in MCF-7 cells", "assay": "Western blotting of H2AX phosphorylation after irradiation", "type": "cell-based, human", "conditions": "RS5033 10 μM, KDOAM-25 0.03 μM", "protocol": "as §1"}, "KDM5A-D": {"test_system": "KDM5A-D", "conditions": "in vitro, toward KDM5 enzymes; ref Tumber et al. [49]; cited from earlier work"}, "[6]": {"test_system": "panel of 55 receptors and enzymes", "set-up": "method as in PMID 28262558", "conditions": "cited from earlier work"}, "[7]": {"test_system": "MM1S multiple myeloma cells", "set-up": "method as in PMID 28262558", "conditions": "cited from earlier work"}, "KDM5D": {"biological_target": "KDM5D (Homo sapiens, UniProt Q9BY66)", "sequence (Q9BY66 whole entry)": "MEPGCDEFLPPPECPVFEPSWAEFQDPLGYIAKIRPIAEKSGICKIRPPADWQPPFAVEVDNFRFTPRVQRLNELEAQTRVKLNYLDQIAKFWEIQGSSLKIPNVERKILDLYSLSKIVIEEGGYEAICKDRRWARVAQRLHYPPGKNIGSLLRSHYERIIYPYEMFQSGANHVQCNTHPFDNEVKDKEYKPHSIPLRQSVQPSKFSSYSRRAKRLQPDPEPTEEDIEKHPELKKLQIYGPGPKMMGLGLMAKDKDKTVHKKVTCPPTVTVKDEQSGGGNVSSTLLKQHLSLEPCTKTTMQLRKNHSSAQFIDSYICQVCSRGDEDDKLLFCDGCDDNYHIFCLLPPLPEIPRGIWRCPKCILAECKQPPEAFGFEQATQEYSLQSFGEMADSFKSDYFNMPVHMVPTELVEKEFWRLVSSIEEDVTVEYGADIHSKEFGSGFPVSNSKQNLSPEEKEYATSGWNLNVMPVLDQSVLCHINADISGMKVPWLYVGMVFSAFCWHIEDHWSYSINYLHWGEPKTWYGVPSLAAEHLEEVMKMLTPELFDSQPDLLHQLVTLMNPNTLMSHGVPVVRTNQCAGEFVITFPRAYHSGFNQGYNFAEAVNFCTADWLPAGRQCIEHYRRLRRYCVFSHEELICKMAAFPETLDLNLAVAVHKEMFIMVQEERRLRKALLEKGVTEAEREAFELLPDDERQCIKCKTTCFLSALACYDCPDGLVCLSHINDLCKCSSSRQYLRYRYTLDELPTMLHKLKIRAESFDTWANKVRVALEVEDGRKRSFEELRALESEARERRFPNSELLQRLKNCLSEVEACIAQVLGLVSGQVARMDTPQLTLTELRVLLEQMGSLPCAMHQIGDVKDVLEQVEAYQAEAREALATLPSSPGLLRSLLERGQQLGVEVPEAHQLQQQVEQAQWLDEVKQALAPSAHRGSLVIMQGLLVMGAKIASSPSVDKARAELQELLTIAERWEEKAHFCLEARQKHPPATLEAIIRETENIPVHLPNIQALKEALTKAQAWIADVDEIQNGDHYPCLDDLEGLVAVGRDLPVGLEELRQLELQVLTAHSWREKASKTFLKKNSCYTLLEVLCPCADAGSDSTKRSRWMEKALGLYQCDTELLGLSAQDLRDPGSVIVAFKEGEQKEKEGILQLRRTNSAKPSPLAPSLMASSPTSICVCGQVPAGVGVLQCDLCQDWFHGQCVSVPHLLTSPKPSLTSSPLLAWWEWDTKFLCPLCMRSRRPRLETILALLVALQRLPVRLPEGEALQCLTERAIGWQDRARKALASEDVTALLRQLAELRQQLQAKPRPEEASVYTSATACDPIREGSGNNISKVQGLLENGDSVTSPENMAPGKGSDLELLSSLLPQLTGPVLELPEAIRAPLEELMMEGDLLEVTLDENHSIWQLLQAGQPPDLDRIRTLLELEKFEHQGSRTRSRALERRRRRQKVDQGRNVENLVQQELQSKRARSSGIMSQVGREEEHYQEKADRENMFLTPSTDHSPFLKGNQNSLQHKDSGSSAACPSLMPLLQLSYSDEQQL", "assay": "Surface Plasmon Resonance (SPR), immobilized KDM5D", "type": "binding", "conditions": "KDM5D immobilized on COOH5 sensorchip, buffer HSP-1%D, analyte 6.25-100 μM", "protocol": "Surface Plasmon Resonance (SPR) experiments were carried out using a SensiQ Pioneer system (ICx Nomadics, Stillwater, OK, USA). Immobilization of ligand (KDM5D) was carried out essentially as in Ilari et al.. The sensor chip (COOH5) was activated chemically by a 100 µL injection of a 1:1 mixture of N-ethyl-N′-(3-([…])carbodiimide (200 mM) and N-hydroxysuccinimide (50 mM) at a flow rate of 5 µL/min. KDM5D was immobilized on activated sensor chips via amine coupling. The immobilization was carried out in 20 mM sodium acetate at pH 4.5; the remaining unreacted groups were blocked by injecting 1 M ethanolamine hydrochloride (100 µL). The amount of immobilized KDM5D was detected by mass concentration-dependent changes in the refractive index on the sensor chip surface and corresponded to about 11,000 resonance units (RU); an empty flow cell was used as a reference. Analytes, i.e., inhibitors RS3152, RS3183, RS3195, RS4995 and RS5033 were dissolved in DMSO at a concentration of 10 mM and diluted in HSP buffer (10 mM Hepes pH 7.4, 150 mM NaCl + 0.005% surfactant P20) to yield 100 μM inhibitor concentration in HSP + 1% DMSO (HSP-1%D). The analytes were automatically diluted in HSP-1%D and injected on the sensorchip for 120 s at a constant flow (30 µL/min); analyte concentrations were: (1) 6.25 μM; (2) 12.5 μM; (3) 25 μM; (4) 50 μM; (5) 100 μM. The increase in RU relative to baseline indicates complex formation; the plateau region represents the steady-state phase of the interaction, whereas the decrease in RU after 120 s represents dissociation of analytes from immobilized KDM5 after injection of buffer HSP-1%D. The sensorgrams were analysed using the SensiQ Qdat 4.0 program and using simple Scatchard plots."}}, "data": [{"smiles": "CCN(CCN(C)C)C(=O)CNCc1cc(C(N)=O)ccn1", "note": "[KDOAM-25, reference compound]", "values": [{"measurement": "increase of H3K4 tri-methylation", "setting": "[1]; 0.03–1 μM", "value": "around 1.5 fold"}, {"measurement": "increase of H3K4 tri-methylation at higher concentrations", "setting": "[1]; concentrations above 1 μM", "value": "the effect is lost"}, {"measurement": "effect on cell cycle", "setting": "MCF-7 cells [2]", "value": "does not show any significant effect"}, {"measurement": "reduction of viable cells", "setting": "MCF-7 cells [3]", "value": "20–35%"}, {"measurement": "proliferative capacity (clonogenic survival)", "setting": "MCF-7 cells [4]", "value": "slight but significant decrease"}, {"measurement": "ɤH2AX increase normalized to the amount of H2AX", "setting": "[5]; MCF-7, 6 Gy, 4-36 h", "value": "not significant"}, {"measurement": "amount of ɤH2AX", "setting": "[5]; MCF-7, sham-irradiated and irradiated (6 Gy) cells", "value": "increases"}, {"measurement": "IC50", "setting": "KDM5A-D", "value": "< 0.1", "unit": "µM"}, {"measurement": "off-target activity", "setting": "[6]", "value": "no off-target activity"}, {"measurement": "proliferation of MM1S multiple myeloma cells", "setting": "[7]", "value": "block proliferation"}]}, {"smiles": "COc1ccc(S(=O)(=O)Nc2cccc(C(=O)O)c2)cc1", "note": "[RS3183]", "values": [{"measurement": "Kd", "setting": "KDM5D", "value": "150 ± 15", "unit": "µM"}]}, {"smiles": "COc1ccc(S(=O)(=O)Nc2cccc(C(=O)n3cccc3)c2)cc1", "note": "[RS3152]", "values": [{"measurement": "Kd", "setting": "KDM5D", "value": "62 ± 5", "unit": "µM"}]}, {"smiles": "CCOC(=O)c1ccccc1C(=O)c1ccc(NS(=O)(=O)c2ccc(Br)cc2)cc1", "note": "[RS4995]", "values": [{"measurement": "Kd", "setting": "KDM5D", "value": "38 ± 3", "unit": "µM"}]}]}
